Measurements published in PubChem BioAssay (NCI).
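Growth conditions: 96-well plates. Treatment: test compound, 48 hours, 5 concentrations. Analysis: linear interpolation between bracketing concentrations; unreached endpoints set to highest concentration. Abbreviation: GI50, concentration required for 50% inhibition of growth. TGI denotes the concentration required for complete inhibition of growth.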

Assays:
Assay in all cases: NCI anticancer screen, dose series, 48 h
786-0 renal = system: 786-0 renal
A498 renal = system: A498 renal
A549 NSCLC = system: A549 NSCLC
ACHN renal = system: ACHN renal
BT-549 breast = system: BT-549 breast
CAKI-1 renal = system: CAKI-1 renal
CCRF-CEM leukemia = system: CCRF-CEM leukemia
COLO 205 colon = system: COLO 205 colon
DU-145 prostate = system: DU-145 prostate
EKVX NSCLC = system: EKVX NSCLC
HCC-2998 colon = system: HCC-2998 colon
HCT-116 colon = system: HCT-116 colon
HCT-15 colon = system: HCT-15 colon
HL-60(TB) leukemia = system: HL-60(TB) leukemia
HOP-62 NSCLC = system: HOP-62 NSCLC
HOP-92 NSCLC = system: HOP-92 NSCLC
HS 578T breast = system: HS 578T breast
K-562 leukemia = system: K-562 leukemia
KM12 colon = system: KM12 colon
LOX IMVI melanoma = system: LOX IMVI melanoma
M14 melanoma = system: M14 melanoma
MCF7 breast = system: MCF7 breast
MDA-MB-231 breast = system: MDA-MB-231 breast
MDA-MB-435 = system: MDA-MB-435
MOLT-4 leukemia = system: MOLT-4 leukemia
NCI-H226 lung = system: NCI-H226 lung

Structure (SMILES): CCN1C2=C(SC(=S)C1=C1SC(C(=O)OC)=C(C(=O)OC)S1)SC(=Nc1ccc(OC)cc1)C2=O
- GI50 (786-0 renal): 1.8 µM
- TGI (786-0 renal): 3.34 µM
- GI50 (A498 renal): 2.03 µM
- TGI (A498 renal): 5.37 µM
- GI50 (A549 NSCLC): 13.1 µM
- TGI (A549 NSCLC): 62.5 µM
- GI50 (ACHN renal): 1.82 µM
- TGI (ACHN renal): 3.58 µM
- GI50 (BT-549 breast): 1.71 µM
- TGI (BT-549 breast): 4.06 µM
- GI50 (CAKI-1 renal): 1.81 µM
- TGI (CAKI-1 renal): 3.9 µM
- GI50 (CCRF-CEM leukemia): 2.09 µM
- TGI (CCRF-CEM leukemia): > 100 µM
- GI50 (COLO 205 colon): 1.92 µM
- TGI (COLO 205 colon): 5.74 µM
- GI50 (DU-145 prostate): 1.73 µM
- TGI (DU-145 prostate): 3.43 µM
- GI50 (EKVX NSCLC): 3.62 µM
- TGI (EKVX NSCLC): 21.3 µM
- GI50 (HCC-2998 colon): 1.95 µM
- TGI (HCC-2998 colon): 3.66 µM
- GI50 (HCT-116 colon): 1.59 µM
- TGI (HCT-116 colon): 3.11 µM
- GI50 (HCT-15 colon): 3.02 µM
- TGI (HCT-15 colon): 33.3 µM
- GI50 (HL-60(TB) leukemia): 1.79 µM
- TGI (HL-60(TB) leukemia): 6.83 µM
- GI50 (HOP-62 NSCLC): 1.95 µM
- TGI (HOP-62 NSCLC): 3.8 µM
- GI50 (HOP-92 NSCLC): 2.97 µM
- TGI (HOP-92 NSCLC): 26.1 µM
- GI50 (HS 578T breast): 3.93 µM
- TGI (HS 578T breast): > 100 µM
- GI50 (K-562 leukemia): 2.36 µM
- TGI (K-562 leukemia): > 100 µM
- GI50 (KM12 colon): 1.67 µM
- TGI (KM12 colon): 3.13 µM
- GI50 (LOX IMVI melanoma): 1.69 µM
- TGI (LOX IMVI melanoma): 3.43 µM
- GI50 (M14 melanoma): 1.75 µM
- TGI (M14 melanoma): 3.75 µM
- GI50 (MCF7 breast): 1.9 µM
- TGI (MCF7 breast): 5.75 µM
- GI50 (MDA-MB-231 breast): 3.39 µM
- TGI (MDA-MB-231 breast): > 100 µM
- GI50 (MDA-MB-435): 2.21 µM
- TGI (MDA-MB-435): 5.55 µM
- GI50 (MOLT-4 leukemia): 1.54 µM
- TGI (MOLT-4 leukemia): 5.29 µM
- GI50 (NCI-H226 lung): 2.25 µM
